Data: the CheMixHub viscosity set
± gives the uncertainty stated by the source.

Assay: xn = mol fraction of the nth substance listed
Conditions: 101 kPa

CCCCCCn1cc[n+](C)c1.[Cl][Fe-]([Cl])([Cl])[Cl] + CCOC(C)=O gave a viscosity (293.15 K, x1 = 0.093) of 1.14 ± 0.05 mPa·s, a viscosity (293.15 K, x1 = 0.1851) of 2.3 ± 0.09 mPa·s and a viscosity (293.15 K, x1 = 0.2815) of 4.29 ± 0.18 mPa·s. It also gave a viscosity (293.15 K, x1 = 0.377) of 7.45 ± 0.31 mPa·s, a viscosity (293.15 K, x1 = 0.4719) of 11.71 ± 0.48 mPa·s and a viscosity (293.15 K, x1 = 0.5799) of 18.13 ± 0.75 mPa·s. The viscosity (293.15 K, x1 = 0.6752) was 26.64 ± 1.1 mPa·s, the viscosity (293.15 K, x1 = 0.7764) was 36.57 ± 1.5 mPa·s and the viscosity (293.15 K, x1 = 0.8869) was 51.89 ± 2.1 mPa·s. For the same molecule, the viscosity (298.15 K, x1 = 0.093) was 1.07 ± 0.04 mPa·s, the viscosity (298.15 K, x1 = 0.1851) was 2.11 ± 0.09 mPa·s and the viscosity (298.15 K, x1 = 0.2815) was 3.87 ± 0.16 mPa·s. The viscosity (298.15 K, x1 = 0.377) was 6.62 ± 0.27 mPa·s, the viscosity (298.15 K, x1 = 0.4719) was 10.22 ± 0.42 mPa·s and the viscosity (298.15 K, x1 = 0.5799) was 15.53 ± 0.64 mPa·s. It also gave a viscosity (298.15 K, x1 = 0.6752) of 22.42 ± 0.93 mPa·s, a viscosity (298.15 K, x1 = 0.7764) of 30.27 ± 1.3 mPa·s and a viscosity (298.15 K, x1 = 0.8869) of 42.15 ± 1.8 mPa·s. For the same molecule, the viscosity (303.15 K, x1 = 0.093) was 1.01 ± 0.04 mPa·s, the viscosity (303.15 K, x1 = 0.1851) was 1.95 ± 0.08 mPa·s and the viscosity (303.15 K, x1 = 0.2815) was 3.51 ± 0.14 mPa·s. It also gave a viscosity (303.15 K, x1 = 0.377) of 5.93 ± 0.24 mPa·s, a viscosity (303.15 K, x1 = 0.4719) of 9.02 ± 0.37 mPa·s and a viscosity (303.15 K, x1 = 0.5799) of 13.48 ± 0.56 mPa·s. For the same molecule, the viscosity (303.15 K, x1 = 0.6752) was 19.08 ± 0.79 mPa·s, the viscosity (303.15 K, x1 = 0.7764) was 25.46 ± 1.1 mPa·s and the viscosity (303.15 K, x1 = 0.8869) was 34.86 ± 1.5 mPa·s. The viscosity (308.15 K, x1 = 0.093) was 0.95 ± 0.04 mPa·s, the viscosity (308.15 K, x1 = 0.1851) was 1.8 ± 0.07 mPa·s and the viscosity (308.15 K, x1 = 0.2815) was 3.2 ± 0.13 mPa·s. It also gave a viscosity (308.15 K, x1 = 0.377) of 5.34 ± 0.22 mPa·s, a viscosity (308.15 K, x1 = 0.4719) of 8.01 ± 0.33 mPa·s and a viscosity (308.15 K, x1 = 0.5799) of 11.79 ± 0.49 mPa·s. For the same molecule, the viscosity (308.15 K, x1 = 0.6752) was 16.45 ± 0.68 mPa·s, the viscosity (308.15 K, x1 = 0.7764) was 21.68 ± 0.9 mPa·s and the viscosity (308.15 K, x1 = 0.8869) was 29.26 ± 1.2 mPa·s. The viscosity (313.15 K, x1 = 0.093) was 0.89 ± 0.04 mPa·s, the viscosity (313.15 K, x1 = 0.1851) was 1.68 ± 0.07 mPa·s and the viscosity (313.15 K, x1 = 0.2815) was 2.93 ± 0.12 mPa·s. The viscosity (313.15 K, x1 = 0.377) was 4.84 ± 0.2 mPa·s, the viscosity (313.15 K, x1 = 0.4719) was 7.18 ± 0.3 mPa·s and the viscosity (313.15 K, x1 = 0.5799) was 10.4 ± 0.43 mPa·s. The viscosity (313.15 K, x1 = 0.6752) was 14.33 ± 0.59 mPa·s, the viscosity (313.15 K, x1 = 0.7764) was 18.64 ± 0.77 mPa·s and the viscosity (313.15 K, x1 = 0.8869) was 24.83 ± 1 mPa·s. The viscosity (318.15 K, x1 = 0.093) was 0.85 ± 0.04 mPa·s, the viscosity (318.15 K, x1 = 0.1851) was 1.57 ± 0.06 mPa·s and the viscosity (318.15 K, x1 = 0.2815) was 2.7 ± 0.11 mPa·s. The viscosity (318.15 K, x1 = 0.377) was 4.42 ± 0.18 mPa·s, the viscosity (318.15 K, x1 = 0.4719) was 6.46 ± 0.27 mPa·s and the viscosity (318.15 K, x1 = 0.5799) was 9.26 ± 0.38 mPa·s. It also gave a viscosity (318.15 K, x1 = 0.6752) of 12.6 ± 0.52 mPa·s, a viscosity (318.15 K, x1 = 0.7764) of 16.23 ± 0.67 mPa·s and a viscosity (318.15 K, x1 = 0.8869) of 21.38 ± 0.89 mPa·s. For the same molecule, the viscosity (323.15 K, x1 = 0.093) was 0.8 ± 0.03 mPa·s, the viscosity (323.15 K, x1 = 0.1851) was 1.47 ± 0.06 mPa·s and the viscosity (323.15 K, x1 = 0.2815) was 2.5 ± 0.1 mPa·s. For the same molecule, the viscosity (323.15 K, x1 = 0.377) was 4.05 ± 0.17 mPa·s, the viscosity (323.15 K, x1 = 0.4719) was 5.85 ± 0.24 mPa·s and the viscosity (323.15 K, x1 = 0.5799) was 8.3 ± 0.34 mPa·s. It also gave a viscosity (323.15 K, x1 = 0.6752) of 11.15 ± 0.46 mPa·s, a viscosity (323.15 K, x1 = 0.7764) of 14.24 ± 0.59 mPa·s and a viscosity (323.15 K, x1 = 0.8869) of 18.51 ± 0.77 mPa·s.
